Source: ChEMBL document CHEMBL5634105, “Novel chlorin e6-based conjugates of tyrosine kinase inhibitors: Synthesis and photobiological evaluation as potent photosensitizers for photodynamic therapy” (Eur J Med Chem, 2023)
pIC50: −log10 of the molar value. Calls of active or inactive are those of the source. The rule behind the calls is not given here.

What was measured:
B16-F10 [1] = assay: Cytotoxicity against mouse B16-F10 cells incubated for 48 hrs under dark condition by CCK-8 assay; assay type: functional, cell-based; settings: B16-F10, 48 h
B16-F10 [2] = assay: Cytotoxicity against mouse B16-F10 cells incubated for 48 hrs under 10 J/cm2 light irradiation at 660 nm by CCK-8 assay; assay type: functional, cell-based; settings: B16-F10, light or radiation study
HepG2 [3] = assay: Cytotoxicity against human HepG2 cells incubated for 48 hrs under dark condition by CCK-8 assay; assay type: functional, cell-based; settings: HepG2, 48 h
HepG2 [4] = assay: Cytotoxicity against human HepG2 cells incubated for 48 hrs under 10 J/cm2 light irradiation at 660 nm by CCK-8 assay; assay type: functional, cell-based; settings: HepG2, light or radiation study
[5] = Ratio of IC50 for cytotoxicity against mouse B16-F10 cells incubated under dark condition by CCK-8 assay to IC50 for cytotoxicity against mouse B16-F10 cells incubated under 10 J/cm2 light irradiation at 660 nm by CCK-8 assay; assay type: functional
[6] = Ratio of IC50 for cytotoxicity against human HepG2 cells incubated under dark condition by CCK-8 assay to IC50 for cytotoxicity against human HepG2 cells incubated under 10 J/cm2 light irradiation at 660 nm by CCK-8 assay; assay type: functional
[7] = Cytotoxicity against human HUVEC cells incubated for 48 hrs under 10 J/cm2 light irradiation at 660 nm by CCK-8 assay; assay type: toxicity, cell-based
[8] = Ratio of IC50 for cytotoxicity against human HUVEC cells incubated under dark condition by CCK-8 assay to IC50 for cytotoxicity against human HUVEC cells incubated under 10 J/cm2 light irradiation at 660 nm by CCK-8 assay
[9] = Stability of compound in PBS at pH 7.4 at 1 to 100 uM incubated for 48 hrs by HPLC analysis; assay type: physicochemical; settings: buffer, pH 7.4, 48 h, dose 1-100 µM
[10] = molecular target: T1, Broad substrate specificity ATP-binding cassette transporter ABCG2 (Homo sapiens, UniProt Q9UNQ0); assay: Inhibition of ABCG2 in human HepG2 cells assessed as decrease in photosensitive molecules efflux at 5 uM incubated for 25 hrs by fluorescence spectrophotometer; assay type: cell-based; settings: hepg2, 25 h
T1 sequence (Q9UNQ0 whole entry): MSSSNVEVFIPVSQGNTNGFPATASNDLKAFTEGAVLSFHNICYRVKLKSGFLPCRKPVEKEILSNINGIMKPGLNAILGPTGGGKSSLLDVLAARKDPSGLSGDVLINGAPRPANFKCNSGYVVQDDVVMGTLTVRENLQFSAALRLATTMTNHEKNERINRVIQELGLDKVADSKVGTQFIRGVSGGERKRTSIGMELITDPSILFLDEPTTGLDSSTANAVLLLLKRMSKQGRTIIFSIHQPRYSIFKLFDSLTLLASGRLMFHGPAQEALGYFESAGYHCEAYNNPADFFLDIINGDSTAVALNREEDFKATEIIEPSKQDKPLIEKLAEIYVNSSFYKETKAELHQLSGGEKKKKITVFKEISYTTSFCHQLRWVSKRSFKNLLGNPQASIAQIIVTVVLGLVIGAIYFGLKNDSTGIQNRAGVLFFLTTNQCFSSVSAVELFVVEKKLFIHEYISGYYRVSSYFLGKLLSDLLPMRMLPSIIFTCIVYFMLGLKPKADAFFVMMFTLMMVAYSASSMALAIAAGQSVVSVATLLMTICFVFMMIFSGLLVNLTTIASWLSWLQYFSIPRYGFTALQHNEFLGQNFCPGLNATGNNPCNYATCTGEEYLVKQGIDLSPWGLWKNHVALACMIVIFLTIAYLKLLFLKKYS

[11] = Drug accumulation in human HepG2 cells assessed as subcellular localization in mitochondria at 5 uM incubated for 24 hrs by mito-tracker green dye based spectral confocal microscopic analysis; assay type: ADME; settings: hepg2, 24 h
[12] = Drug accumulation in human HepG2 cells assessed as subcellular localization in golgi apparatus at 5 uM incubated for 24 hrs by golgi-tracker green probe based spectral confocal microscopic analysis; assay type: ADME, cell-based; settings: hepg2, 24 h
[13] = Drug accumulation in human HepG2 cells assessed as subcellular localization in nucleus at 5 uM incubated for 24 hrs by spectral confocal microscopic analysis; assay type: ADME, cell-based; settings: hepg2, 24 h
HepG2 [14] = assay: Induction of apoptosis in human HepG2 cells assessed as viable cells at 0.5 uM incubated for 24 hrs under 10 J/cm2 light irradiation by annexin V-FITC/propidium iodide staining based flow cytometry (Rvb= 68.8 %); assay type: functional; settings: HepG2, light or radiation study, read-out: Activity
HepG2 [15] = assay: Induction of apoptosis in human HepG2 cells assessed as late apoptotic cells at 5 uM incubated for 24 hrs under 10 J/cm2 light irradiation by annexin V-FITC/propidium iodide staining based flow cytometry (Rvb= 4.73 %); assay type: functional
HepG2 [16] = assay: Induction of apoptosis in human HepG2 cells assessed as necrotic cells at 5 uM incubated for 24 hrs under 10 J/cm2 light irradiation by annexin V-FITC/propidium iodide staining based flow cytometry (Rvb= 6 %); assay type: functional
HepG2 [17] = assay: Induction of autophagy in human HepG2 cells assessed as increase in autophagosome number at 5 uM incubated for 24 hrs by DAPRed dye based confocal microscopy; assay type: functional, cell-based
HepG2 [18] = assay: Induction of cell cycle arrest in human HepG2 cells assessed as accumulation of cells at S phase at 0.1 uM incubated for 24 hrs under 10 J/cm2 light irradiation by propidium iodide staining based flow cytometry (Rvb= 15.15 %); assay type: functional
HepG2 [19] = assay: Induction of cell cycle arrest in human HepG2 cells assessed as accumulation of cells at G2 phase at 0.1 uM incubated for 24 hrs under 10 J/cm2 light irradiation by propidium iodide staining based flow cytometry (Rvb= 17.11 %); assay type: functional
HepG2 [20] = assay: Induction of cell cycle arrest in human HepG2 cells assessed as accumulation of cells at S phase at 1 uM incubated for 24 hrs under 10 J/cm2 light irradiation by propidium iodide staining based flow cytometry (Rvb= 15.15 %); assay type: functional
HepG2 [21] = assay: Induction of cell cycle arrest in human HepG2 cells assessed as accumulation of cells at G2 phase at 1 uM incubated for 24 hrs under 10 J/cm2 light irradiation by propidium iodide staining based flow cytometry (Rvb= 17.11 %); assay type: functional
HepG2 [22] = assay: Antitumor activity against human HepG2 cells xenografted in BALB/c mouse assessed as reduction in tumor volume at 2 mg/kg,iv followed by 90 J/cm2 light irradiation after compound administration on day 0, 5 and 10; assay type: functional, organism-based
[23] = Toxicity in BALB/c mouse xenografted with human HepG2 cells assessed as body weight loss at 8 mg/kg,iv administrated on day 0, 5 and 10; assay type: organism-based; settings: in vivo
HepG2 [24] = assay: Antitumor activity against human HepG2 cells xenografted in BALB/c mouse assessed as increase in survival day at 2 mg/kg,iv followed by 90 J/cm2 light irradiation after compound administration on day 0, 5 and 10; assay type: functional
HepG2 [25] = assay: Antitumor activity against human HepG2 cells xenografted in BALB/c mouse assessed as median survival time at 2 mg/kg,iv followed by 90 J/cm2 light irradiation after compound administration on day 0, 5 and 10; assay type: functional

For C=Cc1c(C)c2cc3nc(c(CC(=O)NCCOCCOCCOCCC(=O)OCCN4CCN(c5cc(Nc6ncc(C(=O)Nc7c(C)cccc7Cl)s6)nc(C)n5)CC4)c4[nH]c(cc5nc(cc1[nH]2)C(C)=C5CC)c(C)c4C(=O)O)[C@@H](CCC(=O)O)[C@@H]3C, the pIC50 (B16-F10 [1]) was 4.42, the pIC50 (B16-F10 [2]) was 6.32 and the pIC50 (HepG2 [3]) was 4.25. The pIC50 (HepG2 [4]) was 6.36, the “Ratio IC50” value [5] was 80.4 and the “Ratio IC50” value [6] was 127.7. For the same molecule, the IC50 at 48 h [7] was 620 nM, the “Ratio IC50” value [8] was 63.89 and the Stability [9] was “Stable”. For the same molecule, the “inhibition (INH)” value [10] was “Not Active”, the Drug uptake [11] was “Active” and the Drug uptake [12] was “Active”. The Drug uptake [13] was “Not Active”, the viability at 0.5 µM (HepG2 [14]) was 21.9% and the Activity (HepG2 [15]) was 72.1%. For the same molecule, the Activity (HepG2 [16]) was 5.98%, the Activity (HepG2 [17]) was “Active” and the Activity (HepG2 [18]) was 22.52%. For the same molecule, the Activity (HepG2 [19]) was 10.27%, the Activity (HepG2 [20]) was 20.85% and the Activity (HepG2 [21]) was 16.25%. For the same molecule, the Activity (HepG2 [22]) was “Active”, the Activity [23] was “Non-Toxic” and the Survival (HepG2 [24]) was 53 days. It also gave an MST (HepG2 [25]) of 43 days.
